In ChEMBL document CHEMBL4476867, “Hydroxy formamide derivatives and their use” (2016):

Legend:
[1] = molecular target: T1, Bone morphogenetic protein 1 (Homo sapiens, UniProt P13497); test: Inhibition of C-terminal FLAG-6x-His epitope tagged and N-terminal human RAGE signal sequence tagged human BMP1 (23 to 721 amino acids) expressed in CHO-E1 cells pre-incubated for 10 mins before promyostatin peptide substrate addition and measured after 60 mins using 0.5 nM BMP1 by FRET based assay; assay type: cell-based
T1 sequence (P13497 whole entry): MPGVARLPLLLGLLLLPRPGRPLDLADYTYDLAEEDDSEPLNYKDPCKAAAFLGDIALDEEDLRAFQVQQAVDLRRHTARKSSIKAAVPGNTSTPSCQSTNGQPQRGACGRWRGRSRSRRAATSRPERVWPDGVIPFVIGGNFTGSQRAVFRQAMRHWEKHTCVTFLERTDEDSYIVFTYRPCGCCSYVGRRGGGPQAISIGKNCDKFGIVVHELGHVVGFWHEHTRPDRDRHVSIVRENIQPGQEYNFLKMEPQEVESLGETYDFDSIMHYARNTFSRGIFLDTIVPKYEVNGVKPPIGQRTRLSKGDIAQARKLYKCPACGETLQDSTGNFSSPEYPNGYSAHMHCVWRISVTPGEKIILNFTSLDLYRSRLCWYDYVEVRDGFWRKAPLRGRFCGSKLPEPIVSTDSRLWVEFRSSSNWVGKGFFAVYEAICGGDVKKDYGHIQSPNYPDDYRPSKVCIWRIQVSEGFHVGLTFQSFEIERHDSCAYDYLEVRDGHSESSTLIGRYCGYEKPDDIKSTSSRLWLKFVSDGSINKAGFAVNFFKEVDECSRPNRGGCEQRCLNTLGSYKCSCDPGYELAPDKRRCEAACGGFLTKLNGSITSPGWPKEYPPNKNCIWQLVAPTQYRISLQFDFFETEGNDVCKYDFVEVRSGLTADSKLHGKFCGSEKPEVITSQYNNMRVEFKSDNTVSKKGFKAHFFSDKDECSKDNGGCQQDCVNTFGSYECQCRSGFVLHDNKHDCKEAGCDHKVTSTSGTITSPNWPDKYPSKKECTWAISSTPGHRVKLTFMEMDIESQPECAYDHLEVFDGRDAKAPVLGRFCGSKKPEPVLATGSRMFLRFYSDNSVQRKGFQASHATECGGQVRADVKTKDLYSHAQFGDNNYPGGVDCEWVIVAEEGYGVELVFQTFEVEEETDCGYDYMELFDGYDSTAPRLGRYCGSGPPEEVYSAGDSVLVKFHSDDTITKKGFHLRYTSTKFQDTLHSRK

[2] = molecular target: T1, Bone morphogenetic protein 1; test: Inhibition of C-terminal FLAG-6x-His epitope tagged and N-terminal human RAGE signal sequence tagged human BMP1 (23 to 721 amino acids) expressed in CHO-E1 cells pre-incubated for 10 mins before promyostatin peptide substrate addition and measured after 30 mins using 50 nM BMP1 by FRET based assay; assay type: cell-based
Tolloid-like protein 1 = Tolloid-like protein 1 (Homo sapiens, UniProt O43897, I156V/N221S/V284A); test: Inhibition of recombinant human TLL1 I156V/N221S/V284A mutant expressed in CHOE1A cells pre-incubated for 10 mins before promyostatin peptide substrate addition and measured after 60 mins by FRET based assay; assay type: cell-based
Sequence of Tolloid-like protein 1 (O43897 148-1013 I156V/N221S/V284A limits assumed): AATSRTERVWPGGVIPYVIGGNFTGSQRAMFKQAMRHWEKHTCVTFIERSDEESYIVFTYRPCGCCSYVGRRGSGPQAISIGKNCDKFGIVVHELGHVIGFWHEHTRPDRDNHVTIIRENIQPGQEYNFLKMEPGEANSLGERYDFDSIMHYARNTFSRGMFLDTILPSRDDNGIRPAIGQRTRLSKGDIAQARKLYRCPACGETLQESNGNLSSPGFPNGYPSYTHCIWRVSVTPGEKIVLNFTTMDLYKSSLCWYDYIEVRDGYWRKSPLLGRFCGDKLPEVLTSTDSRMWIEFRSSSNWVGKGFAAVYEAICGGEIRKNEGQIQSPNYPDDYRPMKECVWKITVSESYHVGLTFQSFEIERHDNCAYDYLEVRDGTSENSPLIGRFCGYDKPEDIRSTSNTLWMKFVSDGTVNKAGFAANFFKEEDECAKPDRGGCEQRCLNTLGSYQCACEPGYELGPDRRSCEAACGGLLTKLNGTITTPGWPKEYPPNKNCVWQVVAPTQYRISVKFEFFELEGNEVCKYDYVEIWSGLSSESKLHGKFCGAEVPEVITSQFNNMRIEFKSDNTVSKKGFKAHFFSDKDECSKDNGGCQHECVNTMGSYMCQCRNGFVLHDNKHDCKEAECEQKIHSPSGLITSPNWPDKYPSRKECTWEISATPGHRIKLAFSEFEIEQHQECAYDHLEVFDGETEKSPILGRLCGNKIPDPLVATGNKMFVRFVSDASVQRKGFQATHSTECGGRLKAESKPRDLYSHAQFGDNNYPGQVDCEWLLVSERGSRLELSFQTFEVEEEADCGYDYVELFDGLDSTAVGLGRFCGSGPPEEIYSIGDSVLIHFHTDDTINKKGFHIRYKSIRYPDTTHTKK

Tolloid-like protein 2 = molecular target: T2, Tolloid-like protein 2 (Homo sapiens, UniProt Q9Y6L7); test: Inhibition of C-terminal Avi-6x-His epitope tagged and N-terminal human RAGE signal sequence tagged recombinant human TLL2 (26 to 1015 amino acids) expressed in CHOE1A cells incubated for 60 mins with promyostatin peptide substrate by FRET based assay; assay type: cell-based
T2 sequence (Q9Y6L7 whole entry): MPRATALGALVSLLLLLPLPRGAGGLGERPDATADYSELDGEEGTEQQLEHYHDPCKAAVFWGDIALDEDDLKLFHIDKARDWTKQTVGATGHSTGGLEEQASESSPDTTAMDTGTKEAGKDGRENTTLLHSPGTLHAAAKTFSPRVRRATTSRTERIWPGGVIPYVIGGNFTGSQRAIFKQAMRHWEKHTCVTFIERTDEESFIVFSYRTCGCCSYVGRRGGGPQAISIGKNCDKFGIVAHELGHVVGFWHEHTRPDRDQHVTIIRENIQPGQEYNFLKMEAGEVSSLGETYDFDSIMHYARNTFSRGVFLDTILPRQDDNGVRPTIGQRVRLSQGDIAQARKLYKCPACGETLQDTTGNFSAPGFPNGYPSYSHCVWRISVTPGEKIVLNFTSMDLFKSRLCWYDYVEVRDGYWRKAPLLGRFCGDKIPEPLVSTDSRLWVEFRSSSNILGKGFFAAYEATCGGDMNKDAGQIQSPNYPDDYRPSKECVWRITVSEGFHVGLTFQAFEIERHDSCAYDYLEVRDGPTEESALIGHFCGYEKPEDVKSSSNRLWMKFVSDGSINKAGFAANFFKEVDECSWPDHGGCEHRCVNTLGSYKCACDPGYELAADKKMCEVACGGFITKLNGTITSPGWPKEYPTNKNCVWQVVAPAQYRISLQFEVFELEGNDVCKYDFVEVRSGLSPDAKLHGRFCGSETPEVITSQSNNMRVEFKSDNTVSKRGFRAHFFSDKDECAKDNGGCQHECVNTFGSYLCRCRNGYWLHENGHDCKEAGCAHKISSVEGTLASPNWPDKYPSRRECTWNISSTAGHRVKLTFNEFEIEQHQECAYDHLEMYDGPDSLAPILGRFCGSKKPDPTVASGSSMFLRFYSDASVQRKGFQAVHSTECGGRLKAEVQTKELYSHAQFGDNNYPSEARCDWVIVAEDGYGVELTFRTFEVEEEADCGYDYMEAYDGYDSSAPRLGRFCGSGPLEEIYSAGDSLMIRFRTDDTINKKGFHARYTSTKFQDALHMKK

[3] = Reduction in PICP levels in human cardiac fibroblasts incubated for 24 to 48 hrs by ELISA; assay type: functional
Method in brief: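 Procollagen I C-terminal propeptide in the culture medium was quantified using a Quidel ELISA. The cells were human cardiac fibroblasts of passage 6 or below, seeded at 10,000 to 15,000 cells per well in 96-well plates and treated the next day in ficoll crowding EMEM with 100 μM ascorbic acid and under 0.3% DMSO. Treatment lasted 24 to 48 hr at 37° C. For IC50, levels normalized to untreated controls were fitted to a log(inhibitor)-response equation in GraphPad Prism.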

CCCCC[C@@H](C(=O)NCNC(=O)c1ccc(-c2cc(OCC)cc(C(=O)N(CC(=O)O)CC(=O)O)c2)o1)[C@@H](CC)N(O)C=O
IC50 [1]: < 126 nM
IC50 [2]: < 200 nM
IC50 (Tolloid-like protein 1): < 398 nM
IC50 (Tolloid-like protein 2): < 794 nM
IC50 [3]: < 3980 nM

CCCCC[C@H](CN(O)C=O)C(=O)NCNC(=O)c1ccc(-c2cc(OC)cc(OC)c2)o1
IC50 [1]: < 126 nM
IC50 [2]: < 200 nM
IC50 (Tolloid-like protein 1): < 398 nM
IC50 (Tolloid-like protein 2): < 794 nM
IC50 [3]: < 3980 nM

CCCCC[C@H](CN(O)C=O)C(=O)NCNC(=O)c1ccc(-c2cccc(C(=O)O)c2F)o1
IC50 [1]: < 126 nM
IC50 [2]: < 200 nM
IC50 (Tolloid-like protein 1): < 398 nM
IC50 (Tolloid-like protein 2): < 794 nM
IC50 [3]: < 3980 nM

CCCCC[C@@H](C(=O)NCNC(=O)c1ccc(-c2ccc(C(=O)O)cc2)o1)[C@@H](CC)N(O)C=O
IC50 [1]: < 126 nM
IC50 [2]: < 200 nM
IC50 (Tolloid-like protein 1): < 398 nM
IC50 (Tolloid-like protein 2): < 794 nM
IC50 [3]: < 3980 nM

CCCCC[C@H](CN(O)C=O)C(=O)NCNC(=O)c1ccc(-c2cccc(P(=O)(O)OC)c2)o1
IC50 [1]: < 126 nM
IC50 [2]: < 200 nM
IC50 (Tolloid-like protein 1): < 398 nM
IC50 (Tolloid-like protein 2): < 794 nM
IC50 [3]: < 3980 nM

CCCCC[C@H](CN(O)C=O)C(=O)NCNC(=O)c1ccc(-c2ccc(O)c(C(=O)O)c2)o1
IC50 [1]: < 126 nM
IC50 [2]: < 200 nM
IC50 (Tolloid-like protein 1): < 398 nM
IC50 (Tolloid-like protein 2): < 794 nM
IC50 [3]: < 3980 nM

CCCCC[C@@H](C(=O)NCNC(=O)c1ccc(-c2cc(O)cc(OCC)c2)o1)[C@@H](CC)N(O)C=O
IC50 [1]: < 126 nM
IC50 [2]: < 200 nM
IC50 (Tolloid-like protein 1): < 398 nM
IC50 (Tolloid-like protein 2): < 794 nM
IC50 [3]: < 3980 nM

CCCCC[C@H](CN(O)C=O)C(=O)NCNC(=O)c1ccc(-c2cccc(C(=O)O)c2C)o1
IC50 [1]: < 126 nM
IC50 [2]: < 200 nM
IC50 (Tolloid-like protein 1): < 398 nM
IC50 (Tolloid-like protein 2): < 794 nM
IC50 [3]: < 3980 nM

CCCCC[C@H](CN(O)C=O)C(=O)NCNC(=O)c1ccc(-c2cccc(C(=O)O)c2OC)o1
IC50 [1]: < 126 nM
IC50 [2]: < 200 nM
IC50 (Tolloid-like protein 1): < 398 nM
IC50 (Tolloid-like protein 2): < 794 nM
IC50 [3]: < 3980 nM

CCCCC[C@H](CN(O)C=O)C(=O)NCNC(=O)c1ccc(-c2cccc(C(C)C(=O)O)c2)o1 (stereo not given in full)
IC50 [1]: < 126 nM
IC50 [2]: < 200 nM
IC50 (Tolloid-like protein 1): < 398 nM
IC50 (Tolloid-like protein 2): < 794 nM
IC50 [3]: < 3980 nM

CCCCC[C@H](CN(O)C=O)C(=O)NCNC(=O)c1ccc(-c2ccc(N)c(C(=O)O)c2)o1
IC50 [1]: < 126 nM
IC50 [2]: < 200 nM
IC50 (Tolloid-like protein 1): < 398 nM
IC50 (Tolloid-like protein 2): < 794 nM
IC50 [3]: < 3980 nM

CCCCC[C@@H](C(=O)NCNC(=O)c1ccc(-c2cc(OCC)cc(C(=O)NC(CO)(CO)CO)c2)o1)[C@@H](CC)N(O)C=O
IC50 [1]: < 126 nM
IC50 [2]: < 200 nM
IC50 (Tolloid-like protein 1): < 398 nM
IC50 (Tolloid-like protein 2): < 794 nM
IC50 [3]: < 3980 nM

CCCCC[C@H](CN(O)C=O)C(=O)NCNC(=O)c1ccc(-c2cccc(P(C)(=O)O)c2)o1
IC50 [1]: < 126 nM
IC50 [2]: < 200 nM
IC50 (Tolloid-like protein 1): < 398 nM
IC50 (Tolloid-like protein 2): < 794 nM
IC50 [3]: < 3980 nM

CCCCC[C@@H](C(=O)NCNC(=O)c1ccc(-c2cc(OCC)cc(C(=O)N[C@H](CC(=O)O)C(=O)O)c2)o1)[C@@H](CC)N(O)C=O
IC50 [1]: < 126 nM
IC50 [2]: < 200 nM
IC50 (Tolloid-like protein 1): < 398 nM
IC50 (Tolloid-like protein 2): < 794 nM
IC50 [3]: < 3980 nM
